PubChem BioAssay (NCI)
Several values for one entry are separate records, joined by “and”; a condition that tells them apart may be missing. Equal entries are not always repeated.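 All cell lines were grown in 96-well plates and treated with compound for 48 hours. GI50 marks 50% less growth. Definition used: TGI = concentration required for complete inhibition of growth.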

How the values were obtained:
Assay in all cases: growth of human tumour cells (NCI), 48 h
DU-145 prostate = system: DU-145 prostate
EKVX NSCLC = system: EKVX NSCLC
MALME-3M melanoma = system: MALME-3M melanoma
SNB-75 CNS = system: SNB-75 CNS
MCF7 breast = system: MCF7 breast
PC-3 prostate = system: PC-3 prostate
CAKI-1 renal = system: CAKI-1 renal
HL-60(TB) leukemia = system: HL-60(TB) leukemia
UO-31 renal = system: UO-31 renal
A549 NSCLC = system: A549 NSCLC
NCI-H522 lung = system: NCI-H522 lung
SW-620 colon = system: SW-620 colon
OVCAR-3 ovarian = system: OVCAR-3 ovarian
M14 melanoma = system: M14 melanoma
NCI/ADR-RES ovarian = system: NCI/ADR-RES ovarian
MDA-MB-231 breast = system: MDA-MB-231 breast
NCI-H460 lung = system: NCI-H460 lung
HCC-2998 colon = system: HCC-2998 colon
RPMI-8226 leukemia = system: RPMI-8226 leukemia
UACC-257 melanoma = system: UACC-257 melanoma
OVCAR-8 ovarian = system: OVCAR-8 ovarian
TK-10 renal = system: TK-10 renal
SF-268 CNS = system: SF-268 CNS
SK-MEL-28 melanoma = system: SK-MEL-28 melanoma
HT29 colon = system: HT29 colon
HCT-15 colon = system: HCT-15 colon
HOP-92 NSCLC = system: HOP-92 NSCLC
SNB-19 CNS = system: SNB-19 CNS
A498 renal = system: A498 renal
SR leukemia = system: SR leukemia
SF-295 CNS = system: SF-295 CNS
NCI-H226 lung = system: NCI-H226 lung
786-0 renal = system: 786-0 renal
LOX IMVI melanoma = system: LOX IMVI melanoma
OVCAR-5 ovarian = system: OVCAR-5 ovarian
U251 CNS = system: U251 CNS
UACC-62 melanoma = system: UACC-62 melanoma
IGROV1 ovarian = system: IGROV1 ovarian
COLO 205 colon = system: COLO 205 colon
RXF 393 renal = system: RXF 393 renal
HCT-116 colon = system: HCT-116 colon
NCI-H23 lung = system: NCI-H23 lung
ACHN renal = system: ACHN renal
K-562 leukemia = system: K-562 leukemia
HS 578T breast = system: HS 578T breast
KM12 colon = system: KM12 colon
T-47D breast = system: T-47D breast
SN12C renal = system: SN12C renal
SK-OV-3 ovarian = system: SK-OV-3 ovarian
SF-539 CNS = system: SF-539 CNS
SK-MEL-2 melanoma = system: SK-MEL-2 melanoma
MOLT-4 leukemia = system: MOLT-4 leukemia
MDA-MB-435 = system: MDA-MB-435
CCRF-CEM leukemia = system: CCRF-CEM leukemia
OVCAR-4 ovarian = system: OVCAR-4 ovarian
HOP-62 NSCLC = system: HOP-62 NSCLC
SK-MEL-5 melanoma = system: SK-MEL-5 melanoma
BT-549 breast = system: BT-549 breast

SMILES: COc1cc(C(=O)Nc2cc(O)c(C/C=C(\C)CCC=C(C)C)c(O)c2)cc2c1O[C@]1(C)CC[C@@H](O)C(C)(C)[C@H]1C2
- GI50 (DU-145 prostate): 1880 nM and 331 nM
- TGI (DU-145 prostate): 13100 nM
- GI50 (EKVX NSCLC): 1120 nM and 1160 nM
- TGI (EKVX NSCLC): 14800 nM
- GI50 (MALME-3M melanoma): 300 nM and 1240 nM
- TGI (MALME-3M melanoma): 7460 nM
- GI50 (SNB-75 CNS): 8.98 nM and < 11.1 nM
- TGI (SNB-75 CNS): 7560 nM
- GI50 (MCF7 breast): 50.7 nM and 104 nM
- TGI (MCF7 breast): 12300 nM
- GI50 (PC-3 prostate): 30.2 nM and 46.3 nM
- TGI (PC-3 prostate): 17800 nM
- GI50 (CAKI-1 renal): 39.4 nM
- TGI (CAKI-1 renal): 11900 nM
- GI50 (HL-60(TB) leukemia): 7.16 nM and 69.9 nM
- GI50 (UO-31 renal): 78.6 nM and 237 nM
- TGI (UO-31 renal): 600 nM and 1290 nM
- GI50 (A549 NSCLC): 381 nM and 214 nM
- TGI (A549 NSCLC): 13900 nM
- GI50 (NCI-H522 lung): 7000 nM and 1290 nM
- TGI (NCI-H522 lung): 11600 nM
- GI50 (SW-620 colon): 89.9 nM and 159 nM
- TGI (SW-620 colon): 1840 nM and 15600 nM
- GI50 (OVCAR-3 ovarian): 3170 nM and 1760 nM
- TGI (OVCAR-3 ovarian): 6120 nM
- GI50 (M14 melanoma): 98.4 nM and 81.2 nM
- TGI (M14 melanoma): 4760 nM and 1910 nM
- GI50 (NCI/ADR-RES ovarian): 9220 nM and 6620 nM
- TGI (NCI/ADR-RES ovarian): > 76400 nM
- GI50 (MDA-MB-231 breast): 1010 nM and 461 nM
- TGI (MDA-MB-231 breast): 5530 nM and 5340 nM
- GI50 (NCI-H460 lung): 83 nM and 101 nM
- TGI (NCI-H460 lung): 13500 nM
- GI50 (HCC-2998 colon): 1490 nM and 2130 nM
- TGI (HCC-2998 colon): 16400 nM
- GI50 (RPMI-8226 leukemia): 9.11 nM and 19.7 nM
- TGI (RPMI-8226 leukemia): 80.6 nM and 95.8 nM
- GI50 (UACC-257 melanoma): 4910 nM and 1580 nM
- TGI (UACC-257 melanoma): 23800 nM
- GI50 (OVCAR-8 ovarian): 4280 nM and 2210 nM
- TGI (OVCAR-8 ovarian): 31400 nM
- GI50 (TK-10 renal): 2540 nM
- TGI (TK-10 renal): 28900 nM
- GI50 (SF-268 CNS): 1100 nM and 741 nM
- TGI (SF-268 CNS): 15800 nM
- GI50 (SK-MEL-28 melanoma): 178 nM and 629 nM
- TGI (SK-MEL-28 melanoma): 13800 nM
- GI50 (HT29 colon): 1420 nM and 955 nM
- TGI (HT29 colon): 5430 nM and 3790 nM
- GI50 (HCT-15 colon): 471 nM and 628 nM
- TGI (HCT-15 colon): 3380 nM and 3370 nM
- GI50 (HOP-92 NSCLC): 237 nM and 173 nM
- TGI (HOP-92 NSCLC): 8130 nM and 4790 nM
- GI50 (SNB-19 CNS): 3280 nM and 1900 nM
- TGI (SNB-19 CNS): 26400 nM
- GI50 (A498 renal): 62.3 nM and 25.8 nM
- TGI (A498 renal): 1720 nM and 889 nM
- GI50 (SR leukemia): 38.2 nM and 21.9 nM
- TGI (SR leukemia): 7200 nM and 5930 nM
- GI50 (SF-295 CNS): 3.07 nM and < 12 nM
- TGI (SF-295 CNS): 13.5 nM and 51.5 nM
- GI50 (NCI-H226 lung): 3470 nM
- TGI (NCI-H226 lung): 29000 nM
- GI50 (786-0 renal): 9.47 nM and 16.8 nM
- TGI (786-0 renal): 6070 nM
- GI50 (LOX IMVI melanoma): 62.6 nM and 80.9 nM
- TGI (LOX IMVI melanoma): 2700 nM and 1920 nM
- GI50 (OVCAR-5 ovarian): 2890 nM and 3490 nM
- TGI (OVCAR-5 ovarian): 21600 nM
- GI50 (U251 CNS): 9.61 nM and < 17.5 nM
- TGI (U251 CNS): 6150 nM
- GI50 (UACC-62 melanoma): 48.8 nM and 46.3 nM
- TGI (UACC-62 melanoma): 803 nM and 1790 nM
- GI50 (IGROV1 ovarian): 3370 nM and 881 nM
- TGI (IGROV1 ovarian): 19500 nM
- GI50 (COLO 205 colon): 386 nM and 678 nM
- TGI (COLO 205 colon): 4250 nM and 5320 nM
- GI50 (RXF 393 renal): 4.19 nM
- TGI (RXF 393 renal): 80.9 nM and 170 nM
- GI50 (HCT-116 colon): 143 nM and 185 nM
- TGI (HCT-116 colon): 7110 nM
- GI50 (NCI-H23 lung): 1610 nM and 2090 nM
- TGI (NCI-H23 lung): 19700 nM
- GI50 (ACHN renal): 1220 nM
- TGI (ACHN renal): 13100 nM
- GI50 (K-562 leukemia): 35.9 nM and 65.9 nM
- TGI (K-562 leukemia): 2170 nM and 2600 nM
- GI50 (HS 578T breast): 14.4 nM
- TGI (HS 578T breast): 14800 nM
- GI50 (KM12 colon): 2390 nM and 1520 nM
- TGI (KM12 colon): 12800 nM
- GI50 (T-47D breast): 401 nM and 690 nM
- TGI (T-47D breast): 4880 nM
- GI50 (SN12C renal): 1950 nM and 2440 nM
- TGI (SN12C renal): 19900 nM
- GI50 (SK-OV-3 ovarian): 92.6 nM and 114 nM
- TGI (SK-OV-3 ovarian): 22700 nM
- GI50 (SF-539 CNS): 6.23 nM
- TGI (SF-539 CNS): 411 nM and 658 nM
- GI50 (SK-MEL-2 melanoma): 83.3 nM and 215 nM
- TGI (SK-MEL-2 melanoma): 3080 nM
- GI50 (MOLT-4 leukemia): 29.8 nM
- TGI (MOLT-4 leukemia): 1540 nM
- GI50 (MDA-MB-435): 325 nM and 1260 nM
- TGI (MDA-MB-435): 13000 nM
- GI50 (CCRF-CEM leukemia): 43.8 nM and 38.4 nM
- TGI (CCRF-CEM leukemia): > 22700 nM
- GI50 (OVCAR-4 ovarian): 5300 nM and 3140 nM
- TGI (OVCAR-4 ovarian): 32000 nM
- GI50 (HOP-62 NSCLC): 53.7 nM and 176 nM
- TGI (HOP-62 NSCLC): 6970 nM
- GI50 (SK-MEL-5 melanoma): 177 nM and 631 nM
- TGI (SK-MEL-5 melanoma): 2100 nM and 3990 nM
- TGI (BT-549 breast): 5230 nM
